Test: Solubility of prodiamine in solvents
Assay type: physicochemical
Source text: The aprotic solvent is preferably a pyrrolidone such as NMP, though one or more of dimethylsulfoxide (DMSO), dimethylformamide, and gamma-Butyrolactone alone or in mixtures, including mixtures with NMP, are useful. DMSO and gamma-Butyrolactone dissolve 0.24 to 0.25 grams prodiamine per gram solvent. NMP dissolves 0.68 grams prodiamine per gram solvent. The aprotic solvent is the primary solvent in most embodiments of the EC.
There are a number of solvents that are not suitable and would be included only to change the composition.
Fatty amides, also called “fatty acid solvents” in this application, are amides formed from a fatty acid and an amine, of which many are known. Preferred are di-substituted fatty acid amides, which include as non-limiting examples N,N-dimethylcaprylamide (available from Cognis as Agnique™ KE-3658), and […] (available as Halcomid™ M8-10). These compounds can fully or partially replace aprotic solvents, and the solvating capacity approaches that of less-preferred aprotic solvents such as DMSO and gamma-Butyrolactone, that is, 0.24 to 0.25 grams prodiamine per gram solvent. A mixture of C8 and C10 fatty acid dimethylamide, (CAS 1118-92-9 and 14433-76-2) are useful.

CCCN(CCC)c1c([N+](=O)[O-])cc(C(F)(F)F)c(N)c1[N+](=O)[O-] [prodiamine, N3,N3-di-n-propyl-2,4-dinitro-6-(trifluoromethyl)-m-phenylenediamine]
Solubility, g prodiamine/g solvent (solvent Aromatic 150 (Aromatic Hydrocarbon)): 0.080 g prodiamine/g solvent | Solubility, g prodiamine/g solvent (solvent Aromatic 200 (Aromatic Hydrocarbon)): 0.070 g prodiamine/g solvent | Solubility, g prodiamine/g solvent (solvent Carbitol TM (Diethylene glycol monomethyl ether)): 0.010 g prodiamine/g solvent | Solubility, g prodiamine/g solvent (solvent DEGEE (Diethylene glycol monoethyl ether)): 0.050 g prodiamine/g solvent | Solubility, g prodiamine/g solvent (solvent Glycol DPM (Dipropylene glycol methyl ether)): 0.008 g prodiamine/g solvent | Solubility, g prodiamine/g solvent (solvent Glycol Ether EB (Diethylene glycol monobutyl ether)): 0.020 g prodiamine/g solvent | Solubility, g prodiamine/g solvent (solvent Jefsol 1555 (Proprietary Solvent (Carbonate))): 0.004 g prodiamine/g solvent | prodiamine dissolved per gram solvent (solvent NMP): 0.68 grams prodiamine per gram solvent
